Experiments:
[1] = biological target: α1(L264T)β3γ2L GABAA receptors (Homo sapiens, UniProt P14867+P28472, L291T); experiment: cell-based; assay type: cell-based; conditions: for Surge current amplitude, of the directly activated peak current: 1000 μM drug, upon washout, α1(L264T)β3γ2L; for Subunit Selectivity Ratio: EC50 β1 subunit/EC50 β3 subunit, ± SD by error propagation
[2] = biological target: α1(L264T)β1γ2L GABAA receptors (Homo sapiens, UniProt P14867+P18505, L291T); assay type: cell-based; conditions: for Surge current amplitude, of the directly activated peak current: 1000 μM drug, upon washout, α1(L264T)β1γ2L
Chain of α1(L264T)β1γ2L GABAA receptors (P14867 28-456 L291T): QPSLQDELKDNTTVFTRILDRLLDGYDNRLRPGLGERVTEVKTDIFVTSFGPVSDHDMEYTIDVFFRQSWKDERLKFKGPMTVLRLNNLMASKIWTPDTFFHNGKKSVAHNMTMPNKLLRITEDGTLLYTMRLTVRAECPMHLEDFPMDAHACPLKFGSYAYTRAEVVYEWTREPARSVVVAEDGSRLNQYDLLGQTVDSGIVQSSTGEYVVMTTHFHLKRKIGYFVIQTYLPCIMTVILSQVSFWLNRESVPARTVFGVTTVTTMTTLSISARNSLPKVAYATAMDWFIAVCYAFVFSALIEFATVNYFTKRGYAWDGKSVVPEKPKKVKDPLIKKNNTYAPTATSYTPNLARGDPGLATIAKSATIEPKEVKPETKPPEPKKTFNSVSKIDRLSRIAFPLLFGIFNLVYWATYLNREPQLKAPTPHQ
Chain of α1(L264T)β1γ2L GABAA receptors (P18505 26-474): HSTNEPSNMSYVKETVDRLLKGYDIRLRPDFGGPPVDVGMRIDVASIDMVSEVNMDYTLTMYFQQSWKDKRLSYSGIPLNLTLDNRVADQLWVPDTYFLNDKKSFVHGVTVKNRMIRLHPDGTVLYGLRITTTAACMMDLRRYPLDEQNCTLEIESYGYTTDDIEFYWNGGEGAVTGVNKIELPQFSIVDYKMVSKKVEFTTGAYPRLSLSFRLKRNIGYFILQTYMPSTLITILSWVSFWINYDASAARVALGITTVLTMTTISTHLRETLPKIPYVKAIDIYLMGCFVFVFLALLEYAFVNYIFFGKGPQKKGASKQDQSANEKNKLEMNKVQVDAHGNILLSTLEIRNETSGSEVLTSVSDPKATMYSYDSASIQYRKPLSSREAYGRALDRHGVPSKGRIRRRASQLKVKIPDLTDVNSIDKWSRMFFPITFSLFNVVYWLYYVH
Chain of α1(L264T)β1γ2L GABAA receptors (P18507 40-475 partner): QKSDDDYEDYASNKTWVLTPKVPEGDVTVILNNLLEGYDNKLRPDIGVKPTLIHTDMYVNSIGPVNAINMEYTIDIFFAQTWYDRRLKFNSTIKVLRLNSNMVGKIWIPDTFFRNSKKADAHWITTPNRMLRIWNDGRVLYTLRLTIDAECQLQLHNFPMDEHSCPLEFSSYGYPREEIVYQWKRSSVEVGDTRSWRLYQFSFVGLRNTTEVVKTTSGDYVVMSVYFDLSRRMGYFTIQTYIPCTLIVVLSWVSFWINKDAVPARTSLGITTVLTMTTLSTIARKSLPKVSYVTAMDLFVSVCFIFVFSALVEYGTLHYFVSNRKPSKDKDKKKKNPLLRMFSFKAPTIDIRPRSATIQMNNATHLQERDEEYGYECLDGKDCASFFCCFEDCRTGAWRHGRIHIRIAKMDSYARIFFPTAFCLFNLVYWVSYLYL

[3] = Lethality after intravenous bolus injection; assay type: in vivo, Sprague-Dawley rats; conditions: Sprague-Dawley, rat, in vivo, iv
[4] = test system: rats; experiment: Lethality after intravenous bolus injection; assay type: in vivo, Sprague-Dawley rats; conditions: for rats died: intravenous bolus; for Therapeutic Index: LD50/Hypnotic ED50, rats
[5] = test system: adrenocortical function; experiment: ACTH1–24 stimulation test, in vivo adrenocortical inhibitory potency; design: species or system Sprague-Dawley rats; conditions: Adrenocortical ID50/Hypnotic ED50, rats
[6] = test system: rats; conditions: larger number of Sprague Dawley rats; cited from earlier work

Chain of α1(L264T)β3γ2L GABAA receptors (P14867 28-456 L291T): as the sequence (P14867 28-456 L291T) above
Chain of α1(L264T)β3γ2L GABAA receptors (P28472 26-473): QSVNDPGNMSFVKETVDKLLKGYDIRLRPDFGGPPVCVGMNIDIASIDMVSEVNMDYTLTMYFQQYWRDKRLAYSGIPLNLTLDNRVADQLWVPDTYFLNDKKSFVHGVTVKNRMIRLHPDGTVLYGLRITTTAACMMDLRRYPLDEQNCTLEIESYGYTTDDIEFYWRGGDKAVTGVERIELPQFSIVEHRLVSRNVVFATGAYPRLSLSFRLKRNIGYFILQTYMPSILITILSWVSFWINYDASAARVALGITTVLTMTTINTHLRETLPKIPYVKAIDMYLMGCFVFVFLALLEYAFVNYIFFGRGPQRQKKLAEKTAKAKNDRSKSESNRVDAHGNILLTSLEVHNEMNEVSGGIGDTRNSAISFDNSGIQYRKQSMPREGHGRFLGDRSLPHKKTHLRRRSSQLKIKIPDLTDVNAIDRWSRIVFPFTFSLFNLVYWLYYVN
Chain of α1(L264T)β3γ2L GABAA receptors (P18507 40-475 partner): as the sequence (P18507 40-475 partner) above

Row | Compound | EC50 [1] [µM] | Surge current amplitude, of the directly activated peak current [1] [%] | Subunit Selectivity Ratio [1] | EC50 [2] [µM] | Surge current amplitude, of the directly activated peak current [2] [%] | LD50 [3] [mg/kg] | rats died ([4]; 50 mg/kg dose) | Therapeutic Index [4] | Adrenocortical Toxicity Index [5] | LD50 ([3]; 20 mg/kg) [mg/kg] | rats died ([4]; 20 mg/kg dose) | LD50, previously reported value [6] [mg/kg] | rats died ([4]; 30 mg/kg dose)
1 | CCOC(=O)c1cncn1C1(c2ccccc2)CC1 [cyclopropyl etomidate, ethyl 1-(1-phenylcyclopropyl)-1H-imidazole-5-carboxylate] | 67.6 ± 8.1 | 61.5 ± 6.9 | 23.5 ± 3.5 | 1590 ± 140 | 73.0 ± 38.5 | 50 | 2/4 | 10 | 0.38 ± 0.08 | – | – | – | –
2 | CC(C)c1cccc(C(C)C)c1O [propofol, reference compound] | 7.58 ± 0.83 | – | – | – | – | – | – | – | – | – | – | – | –
3 | CCOC(=O)c1cncn1[C@H](C)c1ccccc1 [R-etomidate, R-ethyl 1-(1-phenylethyl)-1H-imidazole-5-carboxylate, reference compound] | – | – | – | – | – | 15 | – | – | – | 20 | 1/2 | 20.4 | –
4 | CCOC(=O)c1cncn1Cc1ccccc1 [dihydrogen etomidate, ethyl 1-benzyl-1H-imidazole-5-carboxylate] | 161 ± 13 | 3 ± 2 | 2.48 ± 0.27 | 400 ± 28 | 3 ± 2 | 40 | 3/3 | 8 | 0.52 ± 0.12 | – | – | – | –
5 | CCOC(=O)c1cncn1[C@@H](C)c1ccccc1 [S-etomidate, S-ethyl 1-(1-phenylethyl)-1H-imidazole-5-carboxylate, reference compound] | – | – | – | – | – | 25 | – | – | – | – | – | – | 3/3
